Experiment: xn = mol fraction of the nth substance listed
Conditions: 101 kPa, Liquid; for viscosity: Capillary tube (Ostwald / Ubbelohde) method

CC(=O)O [acetic acid] + CN(C)C=O
Conditions	mass density [kg/m3]	viscosity [mPa·s]
303.15 K, x1 = 0.1004	950.1	0.847
303.15 K, x1 = 0.2009	961.18	0.967
303.15 K, x1 = 0.3012	972.65	1.108
303.15 K, x1 = 0.4014	984.49	1.283
303.15 K, x1 = 0.5014	996.33	1.457
303.15 K, x1 = 0.6014	1007.74	1.613
303.15 K, x1 = 0.7011	1018.12	1.656
303.15 K, x1 = 0.8008	1027.13	1.582
303.15 K, x1 = 0.9006	1034.47	1.375
303.15 K, x1 = 1	1038.66	1.059
313.15 K, x1 = 0.1004	940.75	0.75
313.15 K, x1 = 0.2009	951.76	0.848
313.15 K, x1 = 0.3012	963.18	0.973
313.15 K, x1 = 0.4014	974.95	1.112
313.15 K, x1 = 0.5014	986.68	1.249
313.15 K, x1 = 0.6014	997.98	1.357
313.15 K, x1 = 0.7011	1008.11	1.39
313.15 K, x1 = 0.8008	1016.84	1.331
313.15 K, x1 = 0.9006	1023.84	1.166
313.15 K, x1 = 1	1027.37	0.92
323.15 K, x1 = 0.1004	931.27	0.669
323.15 K, x1 = 0.2009	942.27	0.752
323.15 K, x1 = 0.3012	953.63	0.85
323.15 K, x1 = 0.4014	965.33	0.965
323.15 K, x1 = 0.5014	976.95	1.071
323.15 K, x1 = 0.6014	988.11	1.157
323.15 K, x1 = 0.7011	998.02	1.18
323.15 K, x1 = 0.8008	1006.49	1.132
323.15 K, x1 = 0.9006	1013.13	1.002
323.15 K, x1 = 1	1016.08	0.804
333.15 K, x1 = 0.1004	921.19	0.597
333.15 K, x1 = 0.2009	932.18	0.673
333.15 K, x1 = 0.3012	943.49	0.755
333.15 K, x1 = 0.4014	955.11	0.843
333.15 K, x1 = 0.5014	966.55	0.935
333.15 K, x1 = 0.6014	977.59	0.998
333.15 K, x1 = 0.7011	987.28	1.015
333.15 K, x1 = 0.8008	995.48	0.976
333.15 K, x1 = 0.9006	1001.78	0.87
333.15 K, x1 = 1	1005.04	0.709
343.15 K, x1 = 0.1004	911.56	0.547
343.15 K, x1 = 0.2009	922.54	0.607
343.15 K, x1 = 0.3012	933.82	0.674
343.15 K, x1 = 0.4014	945.35	0.749
343.15 K, x1 = 0.5014	956.68	0.824
343.15 K, x1 = 0.6014	967.55	0.873
343.15 K, x1 = 0.7011	977.06	0.885
343.15 K, x1 = 0.8008	984.99	0.852
343.15 K, x1 = 0.9006	990.93	0.764
343.15 K, x1 = 1	993.69	0.632
353.15 K, x1 = 0.1004	901.58	0.499
353.15 K, x1 = 0.2009	912.55	0.551
353.15 K, x1 = 0.3012	923.82	0.608
353.15 K, x1 = 0.4014	935.28	0.67
353.15 K, x1 = 0.5014	946.48	0.73
353.15 K, x1 = 0.6014	957.19	0.771
353.15 K, x1 = 0.7011	966.49	0.78
353.15 K, x1 = 0.8008	974.17	0.751
353.15 K, x1 = 0.9006	979.73	0.677
353.15 K, x1 = 1	982.95	0.57

O=CO [formic acid] + CN(C)C=O
Conditions	mass density [kg/m3]	viscosity [mPa·s]
303.15 K, x1 = 0.1001	953.65	0.831
303.15 K, x1 = 0.2	969.23	0.93
303.15 K, x1 = 0.3001	986.66	1.048
303.15 K, x1 = 0.4	1006.16	1.186
303.15 K, x1 = 0.4999	1027.99	1.324
303.15 K, x1 = 0.6003	1053.17	1.466
303.15 K, x1 = 0.7005	1081.71	1.555
303.15 K, x1 = 0.7998	1115.25	1.562
303.15 K, x1 = 0.9002	1157.02	1.533
303.15 K, x1 = 1	1205.07	1.437
313.15 K, x1 = 0.1001	943.97	0.738
313.15 K, x1 = 0.2	959.57	0.815
313.15 K, x1 = 0.3001	977.07	0.92
313.15 K, x1 = 0.4	996.43	1.028
313.15 K, x1 = 0.4999	1018.12	1.143
313.15 K, x1 = 0.6003	1043.03	1.253
313.15 K, x1 = 0.7005	1071.28	1.313
313.15 K, x1 = 0.7998	1104.39	1.342
313.15 K, x1 = 0.9002	1145.58	1.33
313.15 K, x1 = 1	1192.81	1.205
323.15 K, x1 = 0.1001	934.86	0.662
323.15 K, x1 = 0.2	950.34	0.725
323.15 K, x1 = 0.3001	967.77	0.808
323.15 K, x1 = 0.4	986.86	0.898
323.15 K, x1 = 0.4999	1008.39	0.992
323.15 K, x1 = 0.6003	1033.04	1.076
323.15 K, x1 = 0.7005	1060.99	1.121
323.15 K, x1 = 0.7998	1093.73	1.14
323.15 K, x1 = 0.9002	1134.05	1.117
323.15 K, x1 = 1	1180.63	1.022
333.15 K, x1 = 0.1001	924.58	0.59
333.15 K, x1 = 0.2	939.91	0.649
333.15 K, x1 = 0.3001	957.33	0.72
333.15 K, x1 = 0.4	976.15	0.793
333.15 K, x1 = 0.4999	997.5	0.867
333.15 K, x1 = 0.6003	1021.94	0.933
333.15 K, x1 = 0.7005	1049.51	0.971
333.15 K, x1 = 0.7998	1081.77	0.982
333.15 K, x1 = 0.9002	1121.74	0.959
333.15 K, x1 = 1	1167.44	0.879
343.15 K, x1 = 0.1001	915.36	0.538
343.15 K, x1 = 0.2	930.7	0.587
343.15 K, x1 = 0.3001	947.93	0.643
343.15 K, x1 = 0.4	966.58	0.708
343.15 K, x1 = 0.4999	987.75	0.768
343.15 K, x1 = 0.6003	1011.92	0.823
343.15 K, x1 = 0.7005	1039.13	0.85
343.15 K, x1 = 0.7998	1070.96	0.857
343.15 K, x1 = 0.9002	1110.03	0.835
343.15 K, x1 = 1	1154.99	0.766
353.15 K, x1 = 0.1001	905.11	0.492
353.15 K, x1 = 0.2	920.26	0.534
353.15 K, x1 = 0.3001	937.3	0.582
353.15 K, x1 = 0.4	955.9	0.635
353.15 K, x1 = 0.4999	976.91	0.693
353.15 K, x1 = 0.6003	1000.84	0.732
353.15 K, x1 = 0.7005	1027.78	0.754
353.15 K, x1 = 0.7998	1059.18	0.756
353.15 K, x1 = 0.9002	1097.86	0.736
353.15 K, x1 = 1	1142.08	0.677
